{
  "source": "patent US10092574B2",
  "about": "“Inhibitors of polynucleotide repeat-associated RNA foci and uses thereof” (VALORISATION-RECHERCHE, LIMITED PARTNERSHIP, priority 2013, dated 2018)",
  "type_in_all_cases": "cell-based, human",
  "key": {"Normal or DM1 myoblasts": {"system": "Normal or DM1 myoblasts", "assay": "Cytotoxicity assay (Hoescht 33342 / propidium iodide, High Content Screening microscope)", "conditions": "for cellular toxicity: 7 days (FIG. 10)", "protocol": "The cellular toxicity of compounds 15 and 32, and their analogs was also measured using a validated cytotoxicity assay. Normal or DM1 myoblasts were treated with 20 μM of compound or DMSO. The ratio of viable cells was measured with a High Content Screening microscope in live cells treated with Hoescht 33342 (labels all cells) and propidium iodide (labels dead cells). The total number of cells was counted and the number of dead cells was subtracted to obtain the number of viable cells, which is presented as a ratio (drug-treated versus DMSO-treated cells). The percentage of dead cells was also measured using propidium iodide.\nThe cellular toxicity of the compounds was also measured in a dose-response assay. In this assay, normal (M908) and patient (DM1) myoblasts were treated for 7 days with compound 32 or 196 at concentrations varying from 5 to 60 μM. Cell number and cell death was quantified by High Content Screening microscope, as specified above. […] Indeed, the ratio of viable cells at 20 μM of compound 15 is 0.22 (FIG. 10), while for compound 196, an analogue of compound 15, it is above 1 at the same concentration (FIG. 14C)."}, "CUGBP1": {"system": "CUGBP1", "assay": "Western blot of CUGBP1 protein levels in myoblasts", "conditions": "DM1 myoblasts, 20 μM, 7 days (FIG. 7)", "protocol": "Human myoblasts were obtained from the Myosix institute associated with the Association Frangaise contre les Myopathies (AFM). Five primary myoblast lines were obtained as controls, and one line from a DM1 patient with a 3.8 Kb CTG triplet amplification corresponding to approximately 1250 CTG repeats. The human myoblasts are cultivated in HAM-F10 media (SIGMA N6635) with 15% FBS, 1% chick embryo extract, and 390 ng/ml of dexamethasone. One day before adding compounds, 2×10^5 cells were plated in 100 mm plates (for CUGBP1 western blot or RT-PCR alternative splicing assay) or 2×10^4 cells/well are seeded in 12-well plates containing 12 mm round glass coverslips (for FISH to detect RNA foci). One day after plating, media is replaced with fresh media containing the compounds at the desired concentration in this manner: the media is put in a screw-cap tube and heated at 37° C. The 20 mM compound stock in 100% DMSO is pipetted directly into the media and the tube is mixed well by inversion and gentle vortexing, and immediately overlayed on the cells. Pure DMSO is used for the control cells. Final concentrations on myoblasts are never higher than 0.5%. This procedure is repeated twice during the seven days of treatment, the media is thus replaced with fresh media containing compound every 2-3 days. Cells are collected or fixed for FISH after one week.\nFor Western blots, CUGBP1 was detected with the 3B1-3D11 monoclonal antibody (mAb) (SIGMA C5112) and GAPDH was detected with the 6C5 mAb (Millipore MAB374). The enhanced chemiluminescence signal (ECL) was acquired and quantified with the ChemiDoc™ MP imaging system (Bio-Rad). For alternative splicing assays, total RNA was collected with Trizol™ (Invitrogen), and 1 μg was used for reverse transcription with random primers with the RevertAid™ H Minus M-MuL RT (Fermentas) according to manufacturer's instructions. For MBNL2, PCR amplification was performed with primers 5′-[…]-3′ (SEQ ID NO:1) and 5′-[…]-3′ (SEQ ID NO:2). SERCA1 was amplified with primers 5′-[…]-3′ (SEQ ID NO:3) and 5′-[…]-3′ (SEQ ID NO:4). For TNNT2 (cardiac Troponin T), PCR was carried out with primers 5′-[…]-3′ (SEQ ID NO:5) and 5′-[…]-3′ (SEQ ID NO:6). The alternative splicing of the hnRNPA2/B1 transcript was detected with the primers 5′-[…]-3′ (SEQ ID NO:7) and 5′-[…]-3′ (SEQ ID NO:8). PCR was performed with Taq using standard conditions but the number of amplification cycles was optimized to be in the quantitative range for each gene. The products of PCR amplification were resolved on 3.5% agarose gels containing Gelred™ (Biotium) and images were acquired and quantified with the ChemiDoc™ MP imaging system (Bio-Rad). […]"}, "[1]": {"system": "MBNL2, MBNL1, Sercal and TNNT2 pre-mRNAs", "assay": "Splicing assays on the panel of MBNL2, MBNL1, Sercal and TNNT2 pre-mRNAs in DM1 myoblasts", "conditions": "20 μM, 7 days (FIG. 11)", "protocol": "Human myoblasts were obtained from the Myosix institute associated with the Association Frangaise contre les Myopathies (AFM). Five primary myoblast lines were obtained as controls, and one line from a DM1 patient with a 3.8 Kb CTG triplet amplification corresponding to approximately 1250 CTG repeats. The human myoblasts are cultivated in HAM-F10 media (SIGMA N6635) with 15% FBS, 1% chick embryo extract, and 390 ng/ml of dexamethasone. One day before adding compounds, 2×10^5 cells were plated in 100 mm plates (for CUGBP1 western blot or RT-PCR alternative splicing assay) or 2×10^4 cells/well are seeded in 12-well plates containing 12 mm round glass coverslips (for FISH to detect RNA foci). […]\nFor Western blots, CUGBP1 was detected with the 3B1-3D11 monoclonal antibody (mAb) (SIGMA C5112) and GAPDH was detected with the 6C5 mAb (Millipore MAB374). The enhanced chemiluminescence signal (ECL) was acquired and quantified with the ChemiDoc™ MP imaging system (Bio-Rad). […] The alternative splicing of the hnRNPA2/B1 transcript was detected with the primers 5′-[…]-3′ (SEQ ID NO:7) and 5′-[…]-3′ (SEQ ID NO:8). PCR was performed with Taq using standard conditions but the number of amplification cycles was optimized to be in the quantitative range for each gene. […]"}},
  "note": "“Also recorded” adds a separate entry of the source.",
  "data": [
    {"smiles": "CCC(C(=O)Nc1ccc(S(=O)(=O)NC23CC4CC(CC(C4)C2)C3)cc1)c1ccccc1", "note": "(stereo not shown) [Compound 31]", "values": [
      {"measurement": "cellular toxicity", "setting": "Normal or DM1 myoblasts; 20 μM", "value": "exhibits cellular toxicity; also recorded: some toxicity"}
    ]},
    {"smiles": "CCCc1c(C(=O)N2CCC(c3ccccc3OC)CC2)cnn1-c1ccccc1", "note": "[Compound 43]", "values": [
      {"measurement": "reduction of CUGBP1 levels", "setting": "CUGBP1", "value": 45, "unit": "%"}
    ]},
    {"smiles": "Cc1c(C(=O)N(Cc2ccccc2)Cc2cccs2)cnn1-c1ccc(Cl)cc1", "note": "[Compound 46]", "values": [
      {"measurement": "cellular toxicity", "setting": "Normal or DM1 myoblasts; 20 μM", "value": "little toxicity"}
    ]},
    {"smiles": "CCCN(CCC)S(=O)(=O)c1ccc(NC(=O)c2cnn(-c3ccccc3)c2C)cc1", "note": "[Compound 196, N-(4-(N,N-Dipropylsulfamoyl)phenyl)-5-methyl-1-phenyl-1H-pyrazole-4-carboxamide]", "values": [
      {"measurement": "correction of mis-splicing of all the pre-mRNAs tested", "setting": "[1]", "value": "significantly corrects mis-splicing of all the pre-mRNAs tested"},
      {"measurement": "ratio of viable cells (drug-treated versus DMSO-treated)", "setting": "Normal or DM1 myoblasts; 20 μM, 7 days (FIG. 10, FIG. 14C)", "value": "above 1"},
      {"measurement": "main phenotype at higher concentrations", "setting": "Normal or DM1 myoblasts; normal (M908) and DM1 myoblasts, 7 days, 5 to 60 μM", "value": "cytostatic effect"},
      {"measurement": "cytotoxicity in dose-response assay", "setting": "Normal or DM1 myoblasts; normal (M908) and DM1 myoblasts, 7 days, concentration of 20 μM and below (FIGS. 14A-D)", "value": "little cytotoxicity"}
    ]}
  ]
}
